# Test results published in patent US20240000979A1, “METHODS AND COMPOSITIONS FOR SYNERGISTIC UPTAKE AND RETENTION OF SMALL MOLECULE LIGANDS” (CORNELL UNIVERSITY, priority 2020, published 2024).
# How the values were obtained:
# LNCaP tumors [1] = experiment: SPECT/CT imaging of radioactivity within tumors after injection; type: in vivo, mice; conditions: for activity concentration in tumor (imaging): mean of group, LNCaP tumors in mice
# Description: In this animal study, three groups of mice were implanted with LNCaP tumors (in Matrigel) with 6-8 tumors per group. After the tumors were established, one group was injected with J591-Lu^177, a 2nd group with PSMA-617-Lu^177 and a 3rd group got both PSMA617-Lu^177 and J591-Lu^177.
# Radiolabeling both PSMA-617 and J591 allowed both to be tracked individually as well as their total when combined. All mice were imaged in a Siemens Inveon dedicated animal multimodality SPECT/CT. Coaxial CT images were acquired for anatomical and attenuation information prior to each SPECT acquisition to measure the radioactivity within the tumors at the 1, 4, 24 and 72 hour time points after injection. SPECT images were reconstructed using the Siemens OSEM algorithm with corrections for scatter, attenuation, decay, and ^177Lu emission spectrum. The mean number of counts within the tumors in each group and time point was calculated and plotted. THe imaging data measured an activity concentration in Bq/mL of tumor: […]
# LNCaP tumors [2] = experiment: Tumor harvest at necropsy and direct scintillation counting of tumor radioactivity; type: in vivo, mice; conditions: Day 3 (72 hours) tumor harvest
# Excerpt: The dotted line represents the summation of the counts in the 617-Lu^177 plus the J591-Lu^177 tumors. […] To confirm the accuracy of this experiment which was based on […] imaging, determinations were done by tumor harvest at necropsy followed by direct counting of the radioactivity within the previously imaged tumors and calculating counts per mg of tumor.
# At the Day 3 tumor harvest, the mean counts per mg tumor in each of the groups is shown in the table below (and FIG. 2) further confirming the imaging results.
# In this animal study, which is a continuation of the imaging study described in Example 1, when the imaging was completed at 72 hours, the animals were necropsied, the tumors harvested, weighed and counted in a scintillation counter to derive the amount of radioactivity per mg (cpm/mg) of tumor. The tumors treated with J591-Lu^177 had 2.2-fold the counts of those tumors that had gotten PSMA-617-Lu^177 alone (FIG. 2). The tumors treated with the combination had counts 48% greater than the sum of each of its individual components, meeting the definition of synergy (FIG. 2). The physical counting of the tumor radioactivity confirmed the results obtained by imaging.
structure (smiles),measurement,setting,value
O=C(O)CC[C@H](NC(=O)N[C@@H](CCCCNC(=O)[C@H](Cc1ccc2ccccc2c1)NC(=O)[C@H]1CC[C@H](CNC(=O)CN2CCN(CC(=O)O)CCN(CC(=O)O)CCN(CC(=O)O)CC2)CC1)C(=O)O)C(=O)O [PSMA-617-Lu^177],"course of tumor counts over time (imaging, in words)","LNCaP tumors [1]; 1 to 72 hour, LNCaP tumors",high uptake at 1 hour that then diminished over time
same,activity concentration in tumor (imaging),LNCaP tumors [1]; 1 hr after injection,29.55 Bq/mL
same,activity concentration in tumor (imaging),LNCaP tumors [1]; 4 hr after injection,30.62 Bq/mL
same,activity concentration in tumor (imaging),LNCaP tumors [1]; 24 hr after injection,27.1 Bq/mL
same,activity concentration in tumor (imaging),LNCaP tumors [1]; 72 hr after injection,12.48 Bq/mL
same,Mean cpm/mg tumor,LNCaP tumors [2],7.536 cpm/mg
